# From the NIST ThermoML archive (doi:10.1016/j.jct.2019.105878)
# ± gives the expanded uncertainty stated by the source.
# Assay: osmotic coefficient (dimensionless); mn = molality of the nth substance listed, in mol/kg
# Details: 298.15 K, 97.5 kPa, Liquid, vapour pressure osmometry
compound,measurement,setting,value
O=Cc1ccc(CO)o1 [5-(hydroxymethyl)furan-2-carbaldehyde] + O,osmotic coefficient,m1 = 0.496,0.85 ± 0.024
same,osmotic coefficient,m1 = 0.991,0.73 ± 0.022
same,osmotic coefficient,m1 = 1.483,0.635 ± 0.021
same,osmotic coefficient,m1 = 1.98,0.572 ± 0.022
same,osmotic coefficient,m1 = 2.473,0.521 ± 0.022
same,osmotic coefficient,m1 = 2.967,0.462 ± 0.023
same,osmotic coefficient,m1 = 3.459,0.442 ± 0.023
same,osmotic coefficient,m1 = 3.95,0.396 ± 0.024
same,osmotic coefficient,m1 = 4.444,0.378 ± 0.024
same,osmotic coefficient,m1 = 4.935,0.37 ± 0.024
